≈ marks a conversion by molar mass, not a printed value. Like-named read-outs stand apart in the source and are kept apart here.
Columns and labels:
Assay in all cases: MIC, standard serial dilution method
Format in all cases: cell-based
Escherichia coli K-12 R5 = details: K12R5, pH 7
Procedure: (§1) Antibacterial activities of each of the abovementioned compounds of the general formula (I) according to this invention were determined by measuring their minimum growth inhibitory concentrations (MIC, mcg/ml) against various bacteria in accordance with a standard serial dilution method. The pH condition of the incubation medium where the MIC data were measured was set at pH 7, unless otherwise specifically indicated. For the sake of comparison, the antibacterial spectra of 1-N-{(S)-4-amino-2-hydroxybutyryl}kanamycin A (i.e., amikacin) and 1-N-{(S)-4-amino-2-hydroxybutyryl}-3,4-dideoxykanamycin B (i.e., habekacin) were also measured in the same manner.
Infectious diseases by Escherichia coli K-12 R5 tend to increase in recent days. The compounds of this invention are therefore important for the therapeutic treatment of bacterial infections.

Bacillus subtilis PCI219 = tested on: Bacillus subtilis PCI219
Procedure: as §1

[1] = tested on: Staphylococcus aureus Ap01
Procedure: as §1

Serratia marcescens = tested on: Serratia marcescens
Procedure: as §1

Escherichia coli JR 225 = details: JR225, pH 7
Procedure: as §1

[2] = tested on: Pseudomonas aeruginosa A3
Procedure: as §1

[3] = tested on: Escherichia coli K-12 LA 290 R55; details: K12LA290R55, pH 7
Procedure: as §1

[4] = tested on: Escherichia coli K-12 ML 1629
Procedure: as §1

[5] = tested on: Staphylococcus aureus 209P
Procedure: as §1

Providencia sp. Pv 16 = tested on: Providencia sp. Pv 16
Procedure: as §1

Mycobacterium 607 = details: Mycobacterium, 607, pH 7
Procedure: as §1

Escherichia coli K-12 = details: K12, pH 7
Procedure: as §1

[6] = tested on: Klebsiella pneumoniae 22 #3038
Procedure: as §1

[7] = tested on: Corynebacterium bovis 1810; details: Corynebacterium bovis, 1810, pH 7
Procedure: as §1

[8] = tested on: Pseudomonas aeruginosa GN 315; details: GN315, pH 7
Procedure: as §1

Proteus rettgeri GN 311 = details: Providencia rettgeri, GN311, pH 7
Procedure: as §1

[9] = tested on: Escherichia coli JR66/W677; details: for MIC: Escherichia coli; for antibacterial activity (MIC) at pH 6 as compared to pH 7: pH 6 vs pH 7
Procedure: as §1
(§2) (a) The antibacterial activities of the compounds of this invention are not decreased practically even under pH conditions of pH […] as compared to their antibacterial activities under neutral conditions of pH 7.

[10] = tested on: Pseudomonas aeruginosa TI 13; details: for MIC: Pseudomonas aeruginosa; for antibacterial activity (MIC) at pH 6 as compared to pH 7: pH 6 vs pH 7
Procedure: as §1, §2

[11] = TI13, measured at pH 6, read-out: MIC
[12] = JR66/W677, measured at pH 6, read-out: MIC

Row | SMILES | MIC (Escherichia coli K-12 R5) [µg/mL] | MIC (Bacillus subtilis PCI219; PCI219, pH 7, read-out: MIC) [µg/mL] | MIC ([1]; AP01, pH 7, read-out: MIC) [µg/mL] | MIC (Escherichia coli JR 225) [µg/mL] | MIC ([2]; A3, pH 7, read-out: MIC) [µg/mL] | MIC [3] [µg/mL] | MIC ([4]; K12ML1629, pH 7, read-out: MIC) [µg/mL] | MIC ([5]; pH 7, read-out: MIC) [µg/mL] | MIC (Providencia sp. Pv 16; SP.PV16, pH 7) [µg/mL] | MIC (Mycobacterium 607; read-out: MIC) [µg/mL] | MIC (Escherichia coli K-12) [µg/mL] | MIC ([6]; pH 7) [µg/mL] | MIC ([7]; read-out: MIC) [µg/mL] | MIC [8] [µg/mL] | MIC (Proteus rettgeri GN 311; read-out: MIC) [µg/mL] | MIC ([9]; JR66/W677, pH 7, read-out: MIC) [µg/mL] | MIC ([10]; TI13, pH 7, read-out: MIC) [µg/mL] | MIC [10, 11] [µg/mL] | MIC (Serratia marcescens; pH 7, read-out: MIC) [µg/mL] | MIC [9, 12] [µg/mL] | other results
1 | NCC[C@H](O)C(=O)N[C@@H]1C[C@H](N)[C@@H](O[C@H]2O[C@H](CN)CC[C@H]2N)[C@H](O)[C@H]1O[C@H]1O[C@H](CO)[C@@H](O)[C@H](N)[C@H]1O [Habekacin, 1-N-{(S)-4-amino-2-hydroxybutyryl}-3,4-dideoxykanamycin B, reference compound] | 25 (≈ 45.2 µM) | < 0.2 | 0.39 (≈ 0.706 µM) | 0.78 (≈ 1.41 µM) | < 0.2 | 0.78 (≈ 1.41 µM) | 0.78 (≈ 1.41 µM) | < 0.2 | 1.56 (≈ 2.82 µM) | 0.39 (≈ 0.706 µM) | 0.39 (≈ 0.706 µM) | 1.56 (≈ 2.82 µM) | 0.39 (≈ 0.706 µM) | 3.12 (≈ 5.65 µM) | 0.78 (≈ 1.41 µM) | 0.78 (≈ 1.41 µM) | 0.78 (≈ 1.41 µM) | 25 (≈ 45.2 µM) |  |  | MIC (Serratia marcescens; pH 7): 12.5 µg/mL (≈ 22.6 µM); MIC ([9]; JR66/W677, pH 6): 6.25 µg/mL (≈ 11.3 µM); antibacterial activity (MIC) at pH 6 as compared to pH 7 [9]: reduced considerably at pH 6; antibacterial activity (MIC) at pH 6 as compared to pH 7 [10]: reduced considerably at pH 6
2 | NC[C@@H](F)[C@H](O)C(=O)N[C@@H]1C[C@H](N)[C@@H](O[C@H]2O[C@H](CN)[C@@H](O)[C@H](O)[C@H]2N)[C@H](F)[C@H]1O[C@H]1O[C@H](CO)[C@@H](O)[C@H](N)[C@H]1O [Invention Compound No. 8, 1-N-{(2R,3R)-4-Amino-3-fluoro-2-hydroxybutyryl}-5-deoxy-5-fluorokanamycin B] | 3.12 (≈ 5.16 µM) | 0.39 (≈ 0.645 µM) | 6.25 (≈ 10.3 µM) | 0.2 (≈ 0.331 µM) | 0.39 (≈ 0.645 µM) | 0.39 (≈ 0.645 µM) | 0.78 (≈ 1.29 µM) | 0.39 (≈ 0.645 µM) |  | 12.5 (≈ 20.7 µM) | < 0.2 |  | 0.39 (≈ 0.645 µM) | 6.25 (≈ 10.3 µM) | 0.2 (≈ 0.331 µM) | 0.78 (≈ 1.29 µM) | 1.56 (≈ 2.58 µM) | 6.25 (≈ 10.3 µM) | 1.56 (≈ 2.58 µM) | 3.12 (≈ 5.16 µM) | MIC (Providencia sp. Pv 16; SP.PV16, pH 7, read-out: MIC): 0.78 µg/mL (≈ 1.29 µM); MIC ([6]; pH 7, read-out: MIC): 3.12 µg/mL (≈ 5.16 µM)
3 | NC[C@@H](F)[C@H](O)C(=O)N[C@@H]1C[C@H](N)[C@@H](O[C@H]2O[C@H](CN)[C@@H](O)[C@H](O)[C@H]2O)[C@H](F)[C@H]1O[C@H]1O[C@H](CO)[C@@H](O)[C@H](N)[C@H]1O [Invention Compound No. 4, 1-N-{(2R,3R)-4-Amino-3-fluoro-2-hydroxybutyryl}-5-deoxy-5-fluorokanamycin A] | 6.25 (≈ 10.3 µM) | 3.12 (≈ 5.15 µM) | 6.25 (≈ 10.3 µM) | 0.39 (≈ 0.644 µM) | 1.56 (≈ 2.58 µM) | 0.78 (≈ 1.29 µM) | 0.39 (≈ 0.644 µM) | 1.56 (≈ 2.58 µM) |  | 3.12 (≈ 5.15 µM) | 0.78 (≈ 1.29 µM) |  | 0.39 (≈ 0.644 µM) | 25 (≈ 41.3 µM) | 1.56 (≈ 2.58 µM) | 1.56 (≈ 2.58 µM) | 3.12 (≈ 5.15 µM) | 3.12 (≈ 5.15 µM) | 6.25 (≈ 10.3 µM) | 3.12 (≈ 5.15 µM) | MIC (Providencia sp. Pv 16; SP.PV16, pH 7, read-out: MIC): 1.56 µg/mL (≈ 2.58 µM); MIC ([6]; pH 7, read-out: MIC): 3.12 µg/mL (≈ 5.15 µM)
4 | NCC[C@H](O)C(=O)N[C@@H]1C[C@H](N)[C@@H](O[C@H]2O[C@H](CN)[C@@H](O)[C@H](O)[C@H]2O)[C@H](O)[C@H]1O[C@H]1O[C@H](CO)[C@@H](O)[C@H](N)[C@H]1O [Amikacin, 1-N-{(S)-4-amino-2-hydroxybutyryl}kanamycin A, reference compound] | 25 (≈ 42.7 µM) |  |  | 0.78 (≈ 1.33 µM) |  | 1.56 (≈ 2.66 µM) |  |  | 1.56 (≈ 2.66 µM) |  | 0.78 (≈ 1.33 µM) | 3.12 (≈ 5.33 µM) |  | 25 (≈ 42.7 µM) |  |  |  | 12.5 (≈ 21.3 µM) | 6.25 (≈ 10.7 µM) | 25 (≈ 42.7 µM) | MIC (Bacillus subtilis PCI219; PCI219, pH 7): 1.56 µg/mL (≈ 2.66 µM); MIC ([1]; AP01, pH 7): 3.12 µg/mL (≈ 5.33 µM); MIC ([2]; A3, pH 7): 1.56 µg/mL (≈ 2.66 µM); MIC ([4]; K12ML1629, pH 7): 1.56 µg/mL (≈ 2.66 µM); MIC ([5]; pH 7): 1.56 µg/mL (≈ 2.66 µM); MIC (Mycobacterium 607): 1.56 µg/mL (≈ 2.66 µM); MIC [7]: 1.56 µg/mL (≈ 2.66 µM); MIC (Proteus rettgeri GN 311): 1.56 µg/mL (≈ 2.66 µM); MIC ([9]; JR66/W677, pH 7): 3.12 µg/mL (≈ 5.33 µM); antibacterial activity (MIC) at pH 6 as compared to pH 7 [9]: reduced considerably at pH 6; MIC ([10]; TI13, pH 7): 3.12 µg/mL (≈ 5.33 µM); antibacterial activity (MIC) at pH 6 as compared to pH 7 [10]: reduced considerably at pH 6

Source: patent publication US4873225A, “1-n-(4-amino-3-fluoro-2-hydroxybutyryl)-kanamycins” (Zaidan Hojin Biseibutsu Kagaku Kenkyu Kai, priority 1987, dated 1989)
